Legend:
Assay in all cases: relative viability (nuclei count vs DMSO), 5 days (fraction); higher = more cells survive
Daporinad + Decitabine = compound: O=C(/C=C/c1cccnc1)NCCCCC1CCN(C(=O)c2ccccc2)CC1 [Daporinad] + Nc1ncn([C@H]2C[C@H](O)[C@@H](CO)O2)c(=O)n1 [Decitabine] (partner 2 µM)
Summary of the method: (§1)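 Lung cancer cell lines were seeded in 1536-well plates and dosed by pin tool the next day, with either a single drug or a fixed anchor-drug dose combined with five library-drug doses (not always all listed) spaced in √10 steps. Five days later, one step fixed the cells and stained their nuclei (final 0.05% Triton X-100, 1% formaldehyde, 1 ug/ml Hoechst), and nuclei were counted on 4× images. Relative viability is the nuclei count in treated wells divided by the count in vehicle wells, and each value is the median of duplicate plates.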

R406 + Crizotinib = compound: COc1cc(Nc2ncc(F)c(Nc3ccc4c(n3)NC(=O)C(C)(C)O4)n2)cc(OC)c1OC [R406] + C[C@@H](Oc1cc(-c2cnn(C3CCNCC3)c2)cnc1N)c1c(Cl)ccc(F)c1Cl [Crizotinib] (partner 1 µM)
Summary of the method: as §1

Daporinad + Palbociclib = compound: O=C(/C=C/c1cccnc1)NCCCCC1CCN(C(=O)c2ccccc2)CC1 [Daporinad] + CC(=O)c1c(C)c2cnc(Nc3ccc(N4CCNCC4)cn3)nc2n(C2CCCC2)c1=O [Palbociclib] (partner 0.5 µM)
Summary of the method: as §1

R406 + Linsitinib = compound: COc1cc(Nc2ncc(F)c(Nc3ccc4c(n3)NC(=O)C(C)(C)O4)n2)cc(OC)c1OC [R406] + C[C@]1(O)C[C@@H](c2nc(-c3ccc4ccc(-c5ccccc5)nc4c3)c3c(N)nccn32)C1 [Linsitinib] (partner 1 µM)
Summary of the method: as §1

Question: Which results are given for SW 1573?
Answer: relative viability (Daporinad + Decitabine; first compound 0.0005 µM): 0.472; relative viability (Daporinad + Decitabine; first compound 0.001581 µM): 0.499; relative viability (Daporinad + Decitabine; first compound 0.005 µM): 0.406; relative viability (Daporinad + Decitabine; first compound 0.01581 µM): 0.197; relative viability (R406 + Crizotinib; first compound 0.08 µM): 0.747; relative viability (R406 + Crizotinib; first compound 0.253 µM): 1; relative viability (R406 + Crizotinib; first compound 0.8 µM): 0.769; relative viability (R406 + Crizotinib; first compound 2.53 µM): 0.653; relative viability (R406 + Crizotinib; first compound 8 µM): 0.579; relative viability (Daporinad + Palbociclib; first compound 0.0005 µM): 0.387; relative viability (Daporinad + Palbociclib; first compound 0.001581 µM): 0.398; relative viability (Daporinad + Palbociclib; first compound 0.005 µM): 0.348; relative viability (Daporinad + Palbociclib; first compound 0.01581 µM): 0.307; relative viability (R406 + Linsitinib; first compound 0.08 µM): 0.926; relative viability (R406 + Linsitinib; first compound 0.253 µM): 0.864; relative viability (R406 + Linsitinib; first compound 0.8 µM): 0.812; relative viability (R406 + Linsitinib; first compound 2.53 µM): 0.664; relative viability (R406 + Linsitinib; first compound 8 µM): 0.627
